In ChEMBL document CHEMBL5518248, “Design, Synthesis, and Biological Evaluation of Novel Arylomycins against Multidrug-Resistant Gram-Negative Bacteria” (J Med Chem, 2024) one finds MIC data, which are given here for eleven compounds.

Holding throughout (format): functional
What all share (details): time 18-20 hrs

The subject of assay [1] is Pseudomonas aeruginosa. The assay is described as follows: Antibacterial activity against Pseudomonas aeruginosa 19-5 assessed as inhibition of bacterial growth measured after 18 to 20 hrs by broth microdilution method.
The test system of assay [2] is Escherichia coli. The assay is described as follows: Antibacterial activity against Escherichia coli 14-2 assessed as inhibition of bacterial growth measured after 18 to 20 hrs by broth microdilution method. In general terms: Dilution methods test growth across graded concentrations, often in twofold steps.
For assay [3], the system named is Escherichia coli. The assay is described as follows: Antibacterial activity against Escherichia coli 14-4 assessed as inhibition of bacterial growth measured after 18 to 20 hrs by broth microdilution method.
Assay [4] concerns Klebsiella pneumoniae. Nature of the assay: Antibacterial activity against Klebsiella pneumoniae 15-1 assessed as inhibition of bacterial growth measured after 18 to 20 hrs by broth microdilution method.
The test system of assay [5] is Acinetobacter baumannii. Nature of the assay: Antibacterial activity against Acinetobacter baumannii 17-2 assessed as inhibition of bacterial growth measured after 18 to 20 hrs by broth microdilution method.
Assay [6] concerns Klebsiella pneumoniae. Nature of the assay: Antibacterial activity against Klebsiella pneumoniae 15-4 assessed as inhibition of bacterial growth measured after 18 to 20 hrs by broth microdilution method.
Assay [7] has as its system Pseudomonas aeruginosa. Nature of the assay: Antibacterial activity against Pseudomonas aeruginosa 17-1 assessed as inhibition of bacterial growth measured after 18 to 20 hrs by broth microdilution method.
In assay [8] the test system is Klebsiella pneumoniae. Nature of the assay: Antibacterial activity against Klebsiella pneumoniae 15-5 assessed as inhibition of bacterial growth measured after 18 to 20 hrs by broth microdilution method.
Assay [9] has as its system Escherichia coli. The assay is described as follows: Antibacterial activity against Escherichia coli ATCC 35218 assessed as inhibition of bacterial growth measured after 18 to 20 hrs by broth microdilution method.
The subject of assay [10] is Acinetobacter baumannii. Nature of the assay: Antibacterial activity against Acinetobacter baumannii 17-8 assessed as inhibition of bacterial growth measured after 18 to 20 hrs by broth microdilution method.

`CCCCCSSCc1ccc(-c2ncc(C(=O)N[C@@H](CCN)C(=O)N(C)[C@@H]3C(=O)N[C@@H](C)C(=O)N[C@H](C(=O)NCC#N)Cc4ccc(OCCN)c(c4)-c4cc3ccc4OCCN)c(C)n2)cc1.O=C(O)C(F)(F)F.O=C(O)C(F)(F)F.O=C(O)C(F)(F)F.O=C(O)C(F)(F)F`: the MIC with Pseudomonas aeruginosa [1] is 2 µg/mL; with Escherichia coli [2], 0.06 µg/mL; with Escherichia coli [3], at most 0.03 µg/mL; with Klebsiella pneumoniae [4] it was 0.25 µg/mL; in the assay on Acinetobacter baumannii [5], 0.5 µg/mL; with Klebsiella pneumoniae [6] it was 0.25 µg/mL. Also, the MIC with Pseudomonas aeruginosa [7] was 4 µg/mL; in the assay on Klebsiella pneumoniae [8] it was 0.25 µg/mL; in the assay on Escherichia coli [9], at most 0.03 µg/mL; with Acinetobacter baumannii [10], 0.5 µg/mL.
In the case of `Cc1nc(-c2ccc(CCCSSC(C)(C)C)cc2)ncc1C(=O)N[C@@H](CCN)C(=O)N(C)[C@@H]1C(=O)N[C@@H](C)C(=O)N[C@H](C(=O)NCC#N)Cc2ccc(OCCN)c(c2)-c2cc1ccc2OCCN.O=C(O)C(F)(F)F.O=C(O)C(F)(F)F.O=C(O)C(F)(F)F.O=C(O)C(F)(F)F`, the MIC in the assay on Pseudomonas aeruginosa [1] stood at 2 µg/mL; in the assay with Escherichia coli [2] it was 0.5 µg/mL; with Escherichia coli [3] it was 0.25 µg/mL; with Klebsiella pneumoniae [4], 0.5 µg/mL; with Acinetobacter baumannii [5] it was 1 µg/mL; in the assay on Klebsiella pneumoniae [6], 0.5 µg/mL. Further, the MIC with Pseudomonas aeruginosa [7] amounted to 4 µg/mL; in the assay on Klebsiella pneumoniae [8] it was 0.5 µg/mL; in the assay on Escherichia coli [9], 0.5 µg/mL; in the assay with Acinetobacter baumannii [10], 1 µg/mL.
Take `CCCCCSSc1ccc(-c2ncc(C(=O)N[C@@H](CCN)C(=O)N(C)[C@@H]3C(=O)N[C@@H](C)C(=O)N[C@H](C(=O)NCC#N)Cc4ccc(OCCN)c(c4)-c4cc3ccc4OCCN)c(C)n2)cc1.O=C(O)C(F)(F)F.O=C(O)C(F)(F)F.O=C(O)C(F)(F)F.O=C(O)C(F)(F)F`: the MIC in the assay with Pseudomonas aeruginosa [1] stood at 4 µg/mL; in the assay with Escherichia coli [2], 0.25 µg/mL; with Escherichia coli [3], 0.25 µg/mL; in the assay with Klebsiella pneumoniae [4], 1 µg/mL; in the assay on Acinetobacter baumannii [5], 2 µg/mL; in the assay with Klebsiella pneumoniae [6], 0.5 µg/mL. In addition, the MIC with Pseudomonas aeruginosa [7] was found to be 4 µg/mL; in the assay on Klebsiella pneumoniae [8], 0.5 µg/mL; in the assay on Escherichia coli [9], 0.5 µg/mL; with Acinetobacter baumannii [10], 1 µg/mL.
Turning to `Cc1nc(-c2ccc(C(C)(C)C)cc2)ncc1C(=O)N[C@@H](CCN)C(=O)N(C)[C@@H]1C(=O)N[C@@H](C)C(=O)N[C@H](C(=O)NCC=O)Cc2ccc(OCCN)c(c2)-c2cc1ccc2OCCN.Cl.Cl.Cl.Cl`, the MIC in the assay on Pseudomonas aeruginosa [1] was 64 µg/mL; with Escherichia coli [2], at most 0.03 µg/mL; with Escherichia coli [3], 0.06 µg/mL; in the assay with Klebsiella pneumoniae [4], at most 0.03 µg/mL; in the assay on Acinetobacter baumannii [5], 4 µg/mL; in the assay on Klebsiella pneumoniae [6] it was 0.125 µg/mL. In addition, the MIC in the assay with Pseudomonas aeruginosa [7] is above 64 µg/mL; in the assay on Klebsiella pneumoniae [8] it was at most 0.03 µg/mL; in the assay on Escherichia coli [9], at most 0.03 µg/mL; in the assay with Acinetobacter baumannii [10], 2 µg/mL.
Take `Cc1nc(-c2ccc(C(C)(C)C)cc2)ncc1C(=O)N[C@@H](CCN)C(=O)N(C)[C@@H]1C(=O)N[C@@H](C)C(=O)N[C@H](C(=O)NNCC#N)Cc2ccc(OCCN)c(c2)-c2cc1ccc2OCCN.Cl.Cl.Cl.Cl`: the MIC was above 64 µg/mL in the assay with Pseudomonas aeruginosa [1]; 1 µg/mL in the assay with Escherichia coli [2]; 0.5 µg/mL in the assay with Escherichia coli [3]; 2 µg/mL with Klebsiella pneumoniae [4]; 32 µg/mL in the assay with Acinetobacter baumannii [5]; 2 µg/mL in the assay with Klebsiella pneumoniae [6]. In addition, the MIC in the assay with Pseudomonas aeruginosa [7] is above 64 µg/mL; in the assay with Klebsiella pneumoniae [8], 1 µg/mL; with Escherichia coli [9], 0.5 µg/mL; in the assay with Acinetobacter baumannii [10], 8 µg/mL.
On to `Cc1nc(-c2ccc([C@H](C)SSC(C)(C)C)cc2)ncc1C(=O)N[C@@H](CCN)C(=O)N(C)[C@@H]1C(=O)N[C@@H](C)C(=O)N[C@H](C(=O)NCC#N)Cc2ccc(OCCN)c(c2)-c2cc1ccc2OCCN.O=C(O)C(F)(F)F.O=C(O)C(F)(F)F.O=C(O)C(F)(F)F.O=C(O)C(F)(F)F`, for which the MIC with Pseudomonas aeruginosa [1] is 1 µg/mL; in the assay on Escherichia coli [2], at most 0.03 µg/mL; in the assay on Escherichia coli [3], at most 0.03 µg/mL; in the assay on Klebsiella pneumoniae [4], 0.125 µg/mL; with Acinetobacter baumannii [5] it was 0.25 µg/mL; in the assay on Klebsiella pneumoniae [6] it was 0.125 µg/mL. Moreover, the MIC is 4 µg/mL in the assay with Pseudomonas aeruginosa [7], 0.125 µg/mL in the assay on Klebsiella pneumoniae [8], at most 0.03 µg/mL with Escherichia coli [9] and 0.25 µg/mL in the assay on Acinetobacter baumannii [10].
Consider `Cc1cc(-c2ncc(C(=O)N[C@@H](CCN)C(=O)N(C)[C@@H]3C(=O)N[C@@H](C)C(=O)N[C@H](C(=O)NCC#N)Cc4ccc(OCCN)c(c4)-c4cc3ccc4OCCN)c(C)n2)ccc1CSSC(C)(C)C.O=C(O)C(F)(F)F.O=C(O)C(F)(F)F.O=C(O)C(F)(F)F.O=C(O)C(F)(F)F`, for which the MIC worked out at 4 µg/mL with Pseudomonas aeruginosa [1]; 0.125 µg/mL in the assay on Escherichia coli [2]; 0.06 µg/mL with Escherichia coli [3]; 0.125 µg/mL with Klebsiella pneumoniae [4]; 1 µg/mL in the assay with Acinetobacter baumannii [5]; 0.25 µg/mL with Klebsiella pneumoniae [6]. The MIC in the assay on Pseudomonas aeruginosa [7] was 4 µg/mL; in the assay with Klebsiella pneumoniae [8], 0.25 µg/mL; in the assay with Escherichia coli [9], at most 0.03 µg/mL; with Acinetobacter baumannii [10], 1 µg/mL.
`Cc1nc(C2=CCC3(CC2)CC3)ncc1C(=O)N[C@@H](CCN)C(=O)N(C)[C@@H]1C(=O)N[C@@H](C)C(=O)N[C@H](C(=O)NCC#N)Cc2ccc(OCCN)c(c2)-c2cc1ccc2OCCN.O=C(O)C(F)(F)F.O=C(O)C(F)(F)F.O=C(O)C(F)(F)F.O=C(O)C(F)(F)F`: the MIC is above 64 µg/mL in the assay on Pseudomonas aeruginosa [1]; 0.25 µg/mL in the assay with Escherichia coli [2]; 0.25 µg/mL with Escherichia coli [3]; 0.25 µg/mL in the assay with Klebsiella pneumoniae [4]; 16 µg/mL in the assay on Acinetobacter baumannii [5]; 0.25 µg/mL with Klebsiella pneumoniae [6]. The MIC in the assay with Pseudomonas aeruginosa [7] is above 64 µg/mL; with Klebsiella pneumoniae [8], 1 µg/mL; in the assay with Escherichia coli [9], 0.125 µg/mL; with Acinetobacter baumannii [10], 4 µg/mL.
Regarding `CSCCSSCc1ccc(-c2ncc(C(=O)N[C@@H](CCN)C(=O)N(C)[C@@H]3C(=O)N[C@@H](C)C(=O)N[C@H](C(=O)NCC#N)Cc4ccc(OCCN)c(c4)-c4cc3ccc4OCCN)c(C)n2)cc1.O=C(O)C(F)(F)F.O=C(O)C(F)(F)F.O=C(O)C(F)(F)F.O=C(O)C(F)(F)F`, the MIC with Pseudomonas aeruginosa [1] amounted to 16 µg/mL; in the assay on Escherichia coli [2], 0.25 µg/mL; in the assay with Escherichia coli [3] it was 0.25 µg/mL; with Klebsiella pneumoniae [4] it was 0.5 µg/mL; with Acinetobacter baumannii [5], 2 µg/mL; with Klebsiella pneumoniae [6] it was 0.5 µg/mL. For the same compound, the MIC with Pseudomonas aeruginosa [7] was found to be 32 µg/mL; in the assay with Klebsiella pneumoniae [8] it was 0.25 µg/mL; in the assay on Escherichia coli [9], 0.125 µg/mL; in the assay with Acinetobacter baumannii [10], 1 µg/mL.
Consider `Cc1cc(-c2ccc(CSSC(C)(C)C)cc2)ncc1C(=O)N[C@@H](CCN)C(=O)N(C)[C@@H]1C(=O)N[C@@H](C)C(=O)N[C@H](C(=O)NCC#N)Cc2ccc(OCCN)c(c2)-c2cc1ccc2OCCN.O=C(O)C(F)(F)F.O=C(O)C(F)(F)F.O=C(O)C(F)(F)F.O=C(O)C(F)(F)F`, for which the minimal inhibitory concentration (MIC) in the assay on Pseudomonas aeruginosa [1] was determined as 6 µg/mL; with Escherichia coli [2], 0.25 µg/mL; with Escherichia coli [3], 0.125 µg/mL; with Klebsiella pneumoniae [4], 0.125 µg/mL; with Acinetobacter baumannii [5], 1 µg/mL; in the assay with Klebsiella pneumoniae [6], 0.5 µg/mL. Further, the MIC in the assay with Pseudomonas aeruginosa [7] is 8 µg/mL; with Klebsiella pneumoniae [8], 0.25 µg/mL; with Escherichia coli [9], at most 0.03 µg/mL; in the assay with Acinetobacter baumannii [10], 1 µg/mL.
Consider `Cc1nc(-c2ccc(CSSCC[Si](C)(C)C)cc2)ncc1C(=O)N[C@@H](CCN)C(=O)N(C)[C@@H]1C(=O)N[C@@H](C)C(=O)N[C@H](C(=O)NCC#N)Cc2ccc(OCCN)c(c2)-c2cc1ccc2OCCN.O=C(O)C(F)(F)F.O=C(O)C(F)(F)F.O=C(O)C(F)(F)F.O=C(O)C(F)(F)F`, for which the MIC in the assay with Pseudomonas aeruginosa [1] was 4 µg/mL; in the assay with Escherichia coli [2], 0.5 µg/mL; in the assay with Escherichia coli [3], 1 µg/mL; in the assay with Klebsiella pneumoniae [4], 1 µg/mL; with Acinetobacter baumannii [5] it was 1 µg/mL; with Klebsiella pneumoniae [6], 1 µg/mL. The MIC is 4 µg/mL in the assay with Pseudomonas aeruginosa [7], 1 µg/mL in the assay with Klebsiella pneumoniae [8], 0.25 µg/mL with Escherichia coli [9] and 1 µg/mL with Acinetobacter baumannii [10].

As usually defined, the MIC is the smallest concentration in the dilution series that meets the test's criterion for growth inhibition.
